Measurements as given in paper PMC11219871, “Epigenetic-based differentiation therapy for Acute Myeloid Leukemia” (Nature Communications, 2024).
Like-named read-outs stand apart in the source and are kept apart here.

Tests used:
[1] = biological target: HDAC1 (Homo sapiens, UniProt Q13547); test: HDAC enzymatic assay, fluorescence-labeled substrate; type: biochemical
[2] = tested on: HL-60; test: RNA-seq; type: cell-based, human
Protocol: (§1) Transcriptomic analyses were performed following low-input 3′ end RNA sequencing approximation for characterization of transcriptional changes in ML-2 and HL-60 samples treated with CM-444 and CM-1758.
(§2) Low-input 3′ end RNA-seq was performed as previously described[53],[54] with minor modifications. Briefly, RNA from 0.1 ×10^6 cells from each experimental condition was purified using a Dynabeads mRNA DIRECT Purification Kit (Thermo Fisher Scientific). For barcoded cDNA generation, polyadenylated RNA was retrotranscribed using an Affinity Script cDNA Synthesis Kit (Agilent Technologies), and barcoded primers also harboring T7 promoter and a partial Read2 sequence for illumine sequencing (CGATTGAGGCCGGTAATACGACTCACTATAGGGGGCGACGTGTGCTCTTCCGATCTXXXXXXNNNNTTTTTTTTTTTTTTTTTTTT, where XXXXXX is the cell barcode and NNN is a unique molecular identifier or UMI, which represents the same initial RNA molecule for future quantification). At this point, the samples were pooled (≤6 samples per pool) at equimolar ratios assessed by q-PCR.
(§3) The samples were then treated with Exonuclease I (Thermo Fisher Scientific following a 1.2x positive SPRI-selection. Second-strand cDNA synthesis was then performed using a NEBNext Ultra II Directional RNA Second-Strand Synthesis Module (New England Biolabs) for 2 h at 16 °C, followed by a 1.4x positive solid-phase reverse immobilization (SPRI) cleanup. The samples were linearly amplified by T7 in vitro transcription using a T7 RNA Polymerase (New England Biolabs) for 16 h at 37 °C. After DNAse treatment (TURBO DNAse I, Thermo Fisher Scientific) for 15 min at 37 °C to remove dsDNA, samples were cleaned with a positive 1.2x SPRI-selection. RNA size, quality, and concentration were determined by analysis with a Qubit Fluorometer (Termo Fisher Scientific) and TapeStation (Agilent 4200 TapeSation System, Agilent Technologies). If necessary, RNA was fragmented in 200- to 300-bp fragments using Zn2+divalent cations followed by a 2x positive SPRI cleanup. Fragmented RNA was dephosphorylated using FastAP Thermosensitive Alkaline Phosphatase (Thermo Fisher Scientific) for 10 min at 37 °C to enhance RNA ligation yield. In this step, a partial Read1 ([…]) sequence for illumine sequencing was ligated to the 3′ end of the fragmented RNA using T4 RNA Ligase I (New England Biolabs). After a 1.5x positive SPRI cleanup, the RNA product was retrotranscribed using an Affinity Script cDNA Synthesis Kit (Agilent Technologies) and a specific retrotranscription primer ([…]). The library was then purified by 1.5x positive SPRI cleanup, and the yield of the previous steps was determined by q-PCR. Finally, PCR using KAPA HiFi HotStar Ready Mix (Kapa Biosystems) was performed for second-strand cDNA synthesis, illumine primers addition (Read1-P5: […] and Read2-P7: […]) and library amplification using the recommended cycle numbers to minimize over-amplification. The product was purified by a 0.7x positive SPRI cleanup. The quality of the final library was determined by q-PCR (based on the threshold cycle, or Ct, obtained for GAPDH (Fw: […], Rv: […]) or GUSB (Fw: […], Rv: […]) housekeeping genes calibrated per individual set of samples, Qubit Fluorometer (Thermo Fisher Scientific) and TapeStation (Agilent 4200 TapeStation System, Agilent Technologies). All libraries were pooled at equimolar ratios and sequenced on a NextSeq500 (Illumina) using 60 bp single-end reads at a minimum sequence depth of 10 million reads per sample.
(§4) Raw reads were demultiplexed using bcl2fastq2 Conversion Software v2.19 (Illumina) to convert base call (BCL) files into FastQ files. The quality control of FastQ files was performed using FastQC (Bioinformatics Babraham Institute). Sequencing reads were aligned to hg19 human reference using Bowtie 2 (Johns Hopkins University) and quantified using quant3p script (github.com/ctlab/quant3p). […]

[3] = tested on: ML-2; test: RNA-seq; type: cell-based, human
Protocol: as §1, §2, §3, §4

[4] = HL-60, 25% GI50, 12 h, log2FC +/-1
[5] = ML-2, 25% GI50, 12 h, log2FC +/-1

HDAC1, sequence (Q13547 whole entry): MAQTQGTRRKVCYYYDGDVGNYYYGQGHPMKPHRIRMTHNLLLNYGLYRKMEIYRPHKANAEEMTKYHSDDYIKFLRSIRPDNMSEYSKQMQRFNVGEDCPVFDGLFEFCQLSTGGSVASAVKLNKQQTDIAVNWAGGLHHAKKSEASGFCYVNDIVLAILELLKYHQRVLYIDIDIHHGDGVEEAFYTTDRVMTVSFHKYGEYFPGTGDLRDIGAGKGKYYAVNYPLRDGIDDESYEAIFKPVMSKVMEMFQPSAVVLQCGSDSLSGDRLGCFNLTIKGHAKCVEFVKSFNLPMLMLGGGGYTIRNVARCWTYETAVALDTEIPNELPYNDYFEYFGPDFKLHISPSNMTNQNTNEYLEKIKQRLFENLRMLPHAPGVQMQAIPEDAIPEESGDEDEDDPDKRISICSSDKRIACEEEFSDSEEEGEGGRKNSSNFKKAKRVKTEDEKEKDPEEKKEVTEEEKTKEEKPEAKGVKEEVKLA

## COc1cc2nc(-c3ccc(C)o3)cc(NCC3CCN(c4ncc(C(=O)NO)cn4)CC3)c2cc1OC [CM-444, 2-[4-[[[6,7-dimethoxy-2-(5-methyl-2-furyl)-4-quinolyl]amino]methyl]-1-piperidyl]pyrimidine-5-carbohydroxamic acid]
[1]; 10 µM, source data of Fig. 1B
  inhibition at 10 µM: 90%
[1]; read-out: IC50
  IC50: 6.55 nM
[2]
  deregulated genes (RNA-seq): 227
  down-regulated genes (RNA-seq): 39
  up-regulated genes (RNA-seq): 188
[2]; [4]
  deregulated genes (RNA-seq): 136
  down-regulated genes (RNA-seq): 3
  up-regulated genes (RNA-seq): 133
[2]; HL-60, RNA-Seq
  ABI1 Log2FC: -0.1754
  CBFB Log2FC: -0.0298
  CCR2 Log2FC: 0.967
  CD44 Log2FC: -0.2341
  CDK6 Log2FC: 0.2817
  CEBPB Log2FC: -0.1067
  CSF3R Log2FC: 0.0126
  CTNNBIP1 Log2FC: 0.7431
  ELANE Log2FC: -2.007
  EP300 Log2FC: -0.2558
  FLI1 Log2FC: -0.04836
  FUT4 Log2FC: -0.2495
  GATA2 Log2FC: -0.2076
  HCLS1 Log2FC: -0.2476
  ITGA4 Log2FC: -0.309
  ITGAM Log2FC: 0.9545
  ITGB1 Log2FC: 0.4474
  ITGB2 Log2FC: -0.1397
  JUN Log2FC: 0.8212
  MPO Log2FC: -0.2249
  MYC Log2FC: -0.2011
  NFE2 Log2FC: -0.621
  PIR Log2FC: 0.9082
  RUNX1 Log2FC: -0.1954
  SOX4 Log2FC: 0.2596
  SPI1 Log2FC: -0.5566
  TESC Log2FC: 0.05581
  TRIB1 Log2FC: 0.02008
  ZBTB46 Log2FC: 0.2361
  ZFP36L1 Log2FC: 0.9631
[3]
  deregulated genes (RNA-seq): 558
  down-regulated genes (RNA-seq): 88
  up-regulated genes (RNA-seq): 470
[3]; [5]
  deregulated genes (RNA-seq): 460
  down-regulated genes (RNA-seq): 44
  up-regulated genes (RNA-seq): 416
[3]; ML-2, RNA-Seq
  ABI1 Log2FC: 0.61
  CBFB Log2FC: 0.4078
  CCR2 Log2FC: 0.3405
  CD44 Log2FC: 0.2468
  CDK6 Log2FC: -0.3705
  CEBPB Log2FC: 0.009186
  CSF3R Log2FC: -0.2226
  CTNNBIP1 Log2FC: 0.1064
  ELANE Log2FC: -0.8925
  EP300 Log2FC: 0.282
  FLI1 Log2FC: 0.279
  FUT4 Log2FC: -0.09706
  GATA2 Log2FC: 1.078
  HCLS1 Log2FC: 0.03361
  ITGA4 Log2FC: -0.1245
  ITGAM Log2FC: 1.391
  ITGB1 Log2FC: 0.4551
  ITGB2 Log2FC: -0.139
  JUN Log2FC: 1.102
  MPO Log2FC: -1.303
  MYC Log2FC: -0.4866
  NFE2 Log2FC: 0.3613
  PIR Log2FC: 1.319
  RUNX1 Log2FC: -0.08636
  SOX4 Log2FC: 0.2683
  SPI1 Log2FC: 0.1755
  TESC Log2FC: 0.4308
  TRIB1 Log2FC: -0.2715
  ZBTB46 Log2FC: -0.2139
  ZFP36L1 Log2FC: 2.504
